Experimental data published in US9393250B2, “Phthalocyanine compounds useful as RecA inhibitors and methods of using same” (University of Saskatchewan, priority 2012, dated 2016).

Columns and labels:
EcRecA = EcRecA (Escherichia coli, UniProt P0A7G6); conditions: in presence of ATPγS
Description: EcRecA (5 μM) was incubated with indicated concentrations of 4,4-Fe-PcTs or 3,4-Cu-PcTs in strand exchange buffer (2 mM ATP-γ-S(Sigma-Aldrich), 10 mM MgAc2, 100 mM KAc, 50 mM Hepes-Tris buffer at pH 7.6, 0.1% v/v 2-mercaptoethanol) for 10 minutes at 37° C. FAM43 (0.35 μM) was added and the reaction was incubated for 2 minutes. The reaction was started by the addition of 0.35 μM of the dsDNA substrate (annealing product of equimolar oligonucleotides 45A and 55A). The reaction was stopped at 30 minutes by adding EDTA to a final concentration of 20 mM and trypsin to a final concentration of 1 μg/μl. After 10 minutes, 10 μl of the reaction was mixed with 5 μl of loading buffer (30% glycerol and 0.1% bromophenol blue) and products were resolved using a 20% native acrylamide gel. The fluorescence emission in the gel was recorded using a Kodak GelLogic 200 system.

ATCC25922 E. coli = experiment: Ciprofloxacin resistance assay and reconstruction assay (in vitro mutagenesis); format: cell-based, Escherichia coli
Description: An in vitro mutagenesis assay [1] was used to measure the ability of 4,4-Fe-PcTs to block the acquisition of ciprofloxacin-induced resistance in ATCC25922 E. coli. ATCC25922 cells were plated on media containing ciprofloxacin in the presence or absence of 4,4-Fe-PcTs and cultured for 10 days. Colonies that appeared early in the assay (days 1 and 2) are believed to arise from pre-existing ciprofloxacin resistance mutations [1]. Colonies that appear later in the incubation (days 3 to 8) are due to ciprofloxacin resistance mutations acquired during exposure to ciprofloxacin or pre-existing mutations with a slow growth phenotype [1].
To distinguish between these two types of mutants, a reconstruction assay that tests for the time it takes for colonies to appear in the presence of ciprofloxacin was used. Colonies that appear at least two days faster than they appeared in the original ciprofloxacin mutagenesis screen were classified as colonies that acquire resistance after exposure to ciprofloxacin [1]. Colonies that appeared in the same number of days as in the ciprofloxacin resistance assay were classified as colonies with pre-existing mutations [1].
Twenty-five independent colonies of ATCC2592 were used to inoculate 25 LB broth cultures that were incubated at 37° C. for 25 hours. Viable cell counts in these cultures were determined by plating serial dilutions onto LB agar plates. One hundred microliters from each culture (˜10^8 cells) were plated in duplicate on LB agar containing ciprofloxacin (CFX) (40 nM) or ciprofloxacin (40 nM) and 4,4-Fe-PcTs (25 μM) (CFX+4,4-Fe-PcTs). Three additional 100 μL aliquots from three cultures were also plated on the same media to determine the number of viable cells per day. At 24 hour intervals, visible colonies were counted, removed from the plate, and stored at −80° C. for later use in the reconstruction assay and sequencing. Every 24 hours, in parallel with the resistance assay, small plugs of agar between visible colonies were excised from resistance assay plates. Agar plugs were homogenized in M9 buffer. Dilutions were plated in duplicate on LB plates to determine the total number of viable cells per day. The cells were also plated on LB containing CFX (40 nM) to determine if any CFX-resistant colonies remained after excision [1].
Reconstruction assays were used to determine whether ciprofloxacin resistant colonies were due to post-exposure mutation or due to mutation prior to ciprofloxacin exposure. Ciprofloxacin resistant clones isolated from the resistance assay were grown to saturation in LB media in 96 well plates. Cultures were then replica-plated in duplicate using a 96-pin replicator on LB plates to confirm viability and LB plates containing ciprofloxacin (40 nM) to confirm ciprofloxacin resistance. Ciprofloxacin-resistant clones that were isolated in the presence 4,4-Fe-PcTs were replica plated on LB and LB containing 4,4-Fe-PcTs (25 μM) and ciprofloxacin (40 nM). Clones that were resistant before ciprofloxacin exposure were defined as clones that formed colonies on the ciprofloxacin-containing media in the same number of days in the reconstruction assay as in the original resistance assay. Clones that mutated after exposure to ciprofloxacin were defined as clones that formed colonies earlier than in the original resistance assay [1].
The rate of ciprofloxacin resistance was defined as the number of ciprofloxacin-resistant mutants per viable cell that evolve as a function of time. […]

[1] = test system: Enterococcus faecalis ATCC29212; experiment: Antibiotic sensitivity assay (CFUs/ml), E. faecalis; format: cell-based; conditions: compound 25 μM; ciprofloxacin 6.5 μM
Description: (§1) Bacterial cultures were diluted to 10^5 cells/mL in LB broth (ATCC25922) or MH broth (ATCC27853, ATCC29212, ATCC29213). Antibiotics and/or phthalocyanines were added at indicated concentrations and the culture was incubated at 37° C. Samples were collected at 0, 24, 48, and 72 hours and plated on LB agar (ATCC25922) or tryptic soy blood agar (ATCC27853, ATCC29212, ATCC29213) to determine CFUs/ml.
To confirm that the activity of 4,4-Fe-PcTs was not specific to the gram-negative ATCC25922 E. coli, the ability of 4,4-Fe-PcTs to potentiate the activity of ciprofloxacin in another gram-negative (Pseudomonas aeruginosa ATCC27853) strain and two gram-positive (Staphylococcus aureus ATCC29213 and Enterococcus faecalis ATCC29212) strains was evaluated.

E. coli strain ATCC25922 = experiment: Antibiotic sensitivity assay (CFUs/ml), E. coli; format: cell-based, Escherichia coli
Description: as §1
The ability of 4,4-Fe-PcTs and 3,4-Cu-PcTs to potentiate the activity of ciprofloxacin (abbreviated “CFX”) was tested. Ciprofloxacin inhibits DNA gyrase in bacteria, causing accumulation of double-stranded DNA breaks (DSBs) and inducing the SOS response. The inventors characterized the ability of 4,4-Fe-PcTs and 3,4-Cu-PcTs to potentiate the activity of ciprofloxacin in the pathogenic E. coli strain ATCC25922, which was used previously by Cirz et al. to evaluate the role of SOS response proteins in antibiotic resistance.

ATCC25922 cells [2] = experiment: Hydroxyl radical production (HPF, flow cytometry); format: cell-based, Escherichia coli; conditions: 4,4-Fe-PcTs 25 μM; ciprofloxacin 40 nM; three hours
Description: To confirm that 4,4-Fe-PcTs inhibited the SOS response by a mechanism independent of blocking hydroxyl radical production, the ability of 4,4-Fe-PcTs to decrease hydroxyl radical levels in the presence of bactericidal antibiotics was assayed. Hydroxyphenyl fluorescein was used to measure hydroxyl radical formation in bacteria. Hydroxyl radical production was measured using flow cytometry with […] fluorescein (HPF, Invitrogen) as described previously. ATCC25922 cells were grown to OD600 of 0.3. For cultures treated with 4,4-Fe-PcTs, the 4,4-Fe-PcTs was added to give a concentration of 25 μM and the culture was incubated for three hours at 37° C. […] Samples (˜10^6 cells) were taken immediately before the addition of antibiotics (time zero) and every hour for three hours. The samples were washed once in PBS, and resuspended in PBS prior to analysis by flow cytometry. Hydroxyl radical production was monitored using a flow cytometer (Beckman Coulter, Inc.) with a 488 nm argon laser and a 515-545 nm emission. Flow cytometry data were analyzed using Flowjo (Tree Star, Inc.).

ATCC25922 cells [3] = experiment: Neutropenic murine bacterial thigh infection model; format: in vivo, Escherichia coli
Description: Six-eight week-old, specific-pathogen-free, female CD-1 mice (weight, 25-35 g) were rendered neutropenic by intraperitoneal injection with 150 mg/kg cylcophosphamide (Sigma) four days before infection and 100 mg/kg cyclophosphamide 24 hours before infection. LB broth cultures inoculated from fresh ATCC25922 colonies and cells were grown to the log phase (OD600 of approximately 0.3) and diluted 1:1000 in LB broth. Thigh infections were produced by injecting 50 μl (approximately 10^6 CFUs) of diluted cultures into halothane-anesthetized mice. One group of mice was administrated inteperitoneal injection of 4,4-Fe-PcTs in conjunction with the second dose of cyclophosphamide (24 hours prior infection) (4,4-Fe-PcTs (pre)+CFX). Starting two hours after infection (defined as time zero), mice were administered subcutaneous injections of either 1 mg/kg ciprofloxacin alone (CFX) or co-treatment of 1 mg/kg ciprofloxacin with interperitoneal injection of 10 mg/kg 4,4-Fe-PcTs (4,4-Fe-PcTs+CFX and 4,4-Fe-PcTs (pre)+CFX) every 24 hours for 3 days. After 48 and 72 hours, three mice from each group were sacrificed, and their thighs removed and homogenized to determine the number of viable bacterial cells for both ciprofloxacin-sensitive and ciprofloxacin-resistant ATCC25922 cells. Serial dilutions of homogenates of the infected thigh were plated on LB agar (CFX Sensitive) and LB agar plates containing ciprofloxacin (40 nM) (CFX Resistant) to count viable cells for each of the three treatment groups.

EcRecA, sequence (P0A7G6 whole entry): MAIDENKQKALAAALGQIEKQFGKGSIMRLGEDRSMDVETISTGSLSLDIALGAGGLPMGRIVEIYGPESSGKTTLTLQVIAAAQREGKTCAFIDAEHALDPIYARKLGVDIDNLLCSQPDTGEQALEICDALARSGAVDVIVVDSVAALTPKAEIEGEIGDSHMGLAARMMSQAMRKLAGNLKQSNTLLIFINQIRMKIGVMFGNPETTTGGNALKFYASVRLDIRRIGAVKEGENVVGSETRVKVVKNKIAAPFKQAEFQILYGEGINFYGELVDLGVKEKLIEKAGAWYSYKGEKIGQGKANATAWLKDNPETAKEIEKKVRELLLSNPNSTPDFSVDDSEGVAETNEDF

iron (III) phthalocyanine-4,4′,4″,4′″-tetrasulfonic acid [4,4-Fe-PcTs]
inhibition of DNA strand-exchange (EcRecA): inhibited
total number of viable and ciprofloxacin-resistant cells relative to ciprofloxacin alone (ATCC25922 E. coli; 4,4-Fe-PcTs 25 μM + ciprofloxacin 40 nM): reduced
ciprofloxacin resistant mutants over time (ATCC25922 E. coli; cells treated with Fe-PcTs and ciprofloxacin): no ciprofloxacin resistant mutants were observed after day 4
ciprofloxacin-resistant colonies caused by pre-existing mutations (ATCC25922 E. coli; ciprofloxacin (40 nM) and 4,4-Fe-PcTs (25 μM)): 60%
potentiation of ciprofloxacin activity [1]: potentiated the activity of ciprofloxacin
CFUs on co-treatment with ampicillin (E. coli strain ATCC25922; 4,4-Fe-PcTs 25 μM + AMP 40 μM, after 24 hours): eliminating all CFUs
effect on activity of chloramphenicol (bacteriostatic) (E. coli strain ATCC25922; 4,4-Fe-PcTs 25 μM + CAM 46 μM): very slight effect
CFUs on co-treatment with ciprofloxacin (E. coli strain ATCC25922; 4,4-Fe-PcTs 25 μM + CFX 40 nM, after 24 hours): eliminating all CFUs
CFUs on co-treatment with kanamycin (E. coli strain ATCC25922; 4,4-Fe-PcTs 25 μM + KAN 43 μM, after 24 hours): eliminating all CFUs
effect on activity of spectinomycin (bacteriostatic) (E. coli strain ATCC25922; 4,4-Fe-PcTs 25 μM + SPECT 808 μM): very slight effect
effect on activity of tetracycline (bacteriostatic) (E. coli strain ATCC25922; 4,4-Fe-PcTs 25 μM + TET 21 μM): very slight effect
potentiation of ciprofloxacin activity (E. coli strain ATCC25922; ciprofloxacin 40 nM): potentiated the activity of ciprofloxacin
colony forming units (CFUs) (E. coli strain ATCC25922; co-treated with ciprofloxacin 40 nM and compound at concentrations above 25 μM): no colony forming units (CFUs) were observed
effect on ciprofloxacin-induced hydroxyl radicals (ATCC25922 cells [2]): did not alter
potentiation of ciprofloxacin by pretreatment versus co-treatment only (ATCC25922 cells [3]; 4,4-Fe-PcTs given 24 hours prior to infection plus co-treatment): potentiated the activity of ciprofloxacin more
ciprofloxacin-resistant cells in thigh (ATCC25922 cells [3]; mice co-treated with ciprofloxacin 1 mg/kg and 4,4-Fe-PcTs 10 mg/kg i.p. (with or without pretreatment)): no ciprofloxacin resistant cells were observed
